Patent US9878999B2, “Proteasome chymotrypsin-like inhibition using PI-1833 analogs” (H. Lee Moffitt Cancer Center and Research Institute, Inc., priority 2011, dated 2018)
“And” between values parts separate entries of the source, which are not always exact repeats. Equal values may be shown once. Read-outs that look alike come from different tables or passages of the source. Each block holds one molecule with its values, some of them ahead of it.

Biological target: CT-L activity of purified 20S proteasome (Homo sapiens, UniProt P20618+P28074)
Experiment: in vitro CT-L activity of purified 20S proteasome
Assay type: biochemical
Details: for inhibition at 10 µM: read-out: Screening Results (% Inhibition @ 10 μM) Chymotrypsin-like; for fold difference of CT-L potency between S- and R-enantiomer: 16c vs 16b, 16e vs 16f
[1] = Table 5, read-out: IC50 (μM) Chymotrypsin-like
[2] = Table 1, read-out: IC50 (μM) Chymotrypsin-like activity
[3] = Table 3, read-out: IC50 (μM) CT-L

IC50 [1]: 2.53 ± 0.95 µM
SMILES: CC(C)N(Cc1nc(-c2ccc(C(F)(F)F)cc2)no1)C(=O)COc1ccc(C(F)(F)F)cc1 [drawing 115]

IC50 [1]: 1.36 ± 0.184 µM
SMILES: CC(C)N(Cc1nc(-c2cccnc2)no1)C(=O)COc1ccc(C2CCCCC2)cc1 [drawing 169]

IC50 [2]: 0.105 ± 0.031 µM | fold loss of CT-L activity (compared to 11ad or 11ae): 3 fold
SMILES: CCCc1ccc(OCC(=O)N(Cc2nc(-c3cnccn3)no2)C(C)C)cc1 [11am, N-Isopropyl-2-(4-propylphenoxy)-N-((3-(pyrazin-2-yl)-1,2,4-oxadiazol-5-yl)methyl)acetamide]

inhibition at 10 µM (Table 5, @ 10 μM): -108 ± 119%
SMILES: Cc1ccc(OCC(=O)N(Cc2nc(-c3ccc(C)cc3)no2)C(C)(C)C)cc1 [drawing 142]

IC50 [1]: 4.12 ± 0.09 µM
SMILES: Cc1ccc(-c2noc(CN(C(=O)COc3ccc(C(C)C)cc3)C(C)C)n2)cc1

IC50 [1]: 1.08 ± 0.33 µM
SMILES: Cc1ccc(-c2noc(CN(C(=O)COc3ccc(C(F)(F)F)cc3)C(C)C)n2)cc1 [drawing 118]

IC50 [1]: 0.428 ± 0.038 µM
SMILES: CCCCCCc1ccc(OCC(=O)N(Cc2nc(-c3cccnc3)no2)C(C)C)cc1 [drawing 165]

fold loss of CT-L activity (compared to 1): 3 fold | IC50 (read-out: IC50, in vitro CT-L): 2.37 µM
SMILES: Cc1ccc(OCC(=O)N(Cc2nc(-c3ccc(C)cc3)no2)CC(C)C)cc1 [12a, N-Isobutyl-N-((3-p-tolyl-1,2,4-oxadiazol-5-yl)methyl)-2-(p-tolyloxy)acetamide]

IC50 [1]: 44 ± 20.9 µM
SMILES: CC(C)N(Cc1nc(-c2ccccc2)no1)C(=O)CCc1ccc(C(F)(F)F)cc1 [drawing 130]

inhibition at 10 µM (Table 5, @ 10 μM): 31.4 ± 11.2%
SMILES: Cc1ccc(OCC(=O)N(CCc2nc(-c3ccccc3)no2)C(C)C)cc1 [drawing 144]

IC50 (Table 9, read-out: IC50 (μM) Chymotrypsin-like): 2.37 ± 0.4 µM
SMILES: Cc1ccc(OCC(=O)N(Cc2nc(-c3ccc(C)cc3)no2)CC(C)C)cc1 [drawing 187]

IC50 [1]: 0.45 ± 0.15 µM
SMILES: Cc1ccc(OCC(=O)N(Cc2nc(-c3ccc(Cl)cc3)no2)C(C)C)cc1 [drawing 113]

inhibition at 10 µM (Table 5, @ 10 μM): < 70%
SMILES: Cc1cccc(OCC(=O)N(Cc2nc(-c3ccccc3)no2)C(C)C)c1 [drawing 136]

CT-L inhibitory activity, in words: failed to improve the CT-L activity | IC50 [2]: 65.9 ± 33.7 µM | fold loss of CT-L activity (compared to 11ad or 11ae): > 35 fold
SMILES: CC(C)N(Cc1nc(-c2cccnc2)no1)C(=O)COc1ccc(C(C)(C)C)cc1 [11aj, N-Isopropyl-2-(4-tert-butylphenoxy)-N-((3-(pyridin-3-yl)-1,2,4-oxadiazol-5-yl)methyl)acetamide]

IC50 [1]: 2.39 µM and 1.99 µM
SMILES: CCCc1ccc(O[C@H](C)C(=O)N(Cc2nc(-c3cccnc3)no2)C(C)C)cc1

IC50 [2]: 1.36 ± 0.184 µM | fold loss of CT-L activity (compared to 11ad or 11ae): 40 fold
SMILES: CC(C)N(Cc1nc(-c2cccnc2)no1)C(=O)COc1ccc(C2CCCCC2)cc1 [11ah]

inhibition at 10 µM (Table 5, @ 10 μM): -8.36 ± 19%
SMILES: Cc1ccc(OCC(=O)N(Cc2nc(-c3ccc(C)cc3)no2)C2CC2)cc1 [drawing 172]

inhibition at 10 µM (Table 5, @ 10 μM): 95.72 ± 0.88% | IC50 [1]: 0.37 ± 0.046 µM
SMILES: Cc1ccc(OCC(=O)N(Cc2nc(-c3ccncc3)no2)C(C)C)cc1 [drawing 147]

fold improved CT-L activity (compared to the hit 1 (PI-1833)): 6 fold | IC50 (read-out: IC50, in vitro CT-L): 0.099 ± 0.03 µM
SMILES: CCc1ccc(OCC(=O)N(Cc2nc(-c3cccnc3)no2)C(C)C)cc1 [11ab, 2-(4-Ethylphenoxy)-N-isopropyl-N-((3-pyridin-3-yl)1,2,4-oxadiazol-5-yl)methylacetamide]

fold difference of CT-L potency between S- and R-enantiomer: 35 fold | IC50 [3]: 7.52 ± 2.13 µM
SMILES: Cc1ccc(O[C@H](C)C(=O)N(Cc2nc(-c3cccnc3)no2)C(C)C)cc1 [16c, (R)—N-Isopropyl-N-((3-(pyridine-3-yl)-1,2,4-oxadiazol-5-yl)methyl)-2-(p-tolyloxy)propanamide]

IC50 [2]: 0.428 ± 0.038 µM | fold loss of CT-L activity (compared to 11ad or 11ae): 13 fold
SMILES: CCCCCCc1ccc(OCC(=O)N(Cc2nc(-c3cccnc3)no2)C(C)C)cc1 [11ag, 2-(4-Hexylphenoxy)-N-isopropyl-N-((3-(pyridine-3-yl)-1,2,4-oxadiazol-5-yl)methyl)acetamide]

CT-L inhibitory activity, in words: loss of CT-L proteasome activity | IC50 (Table 7, 20S CT-L proteasome activity, read-out: IC50 (μM) CT-L): 2.37 ± 0.4 µM
SMILES: Cc1ccc(OCC(=O)N(Cc2nc(-c3ccc(C)cc3)no2)CC(C)C)cc1 [compound 36]

IC50 [2]: 0.98 ± 0.5 µM | IC50 (read-out: IC50, in vitro CT-L): ~1 µM
SMILES: CC(C)N(Cc1nc(-c2cccnc2)no1)C(=O)COc1ccc(O)cc1 [11u]

fold difference of CT-L potency between S- and R-enantiomer: 40 fold | IC50 [3]: 0.075 µM
SMILES: CCCc1ccc(O[C@@H](C)C(=O)N(Cc2nc(-c3cccnc3)no2)C(C)C)cc1 [16e, (S)—N-Isopropyl-2-(4-propylphenoxy)-N-((3-(pyridine-3-yl)-1,2,4-oxadiazol-5-yl)methyl)propanamide]

CT-L inhibitory activity, in words: failed to improve the CT-L activity | IC50 [2]: 0.436 ± 0.073 µM
SMILES: CC(C)c1ccc(OCC(=O)N(Cc2nc(-c3cccnc3)no2)C(C)C)cc1 [11ai, N-Isopropyl-2-(4-isopropylphenoxy)-N-((3-(pyridin-3-yl)-1,2,4-oxadiazol-5-yl)methyl)acetamide]

Screening Results (% Inhibition @ 10 μM) Chymotrypsin-like (Table 5, @ 10 μM, 10 µM): 27.76 ± 20.83 (n = 5) %
SMILES: CC(C)N(Cc1nc(-c2ccccc2)no1)C(=O)COc1ccc(C(=O)O)cc1 [drawing 143]
